Experimental data published in US20040235869A1, “Nucleoside analog inhibitors of reverse transcriptase” (priority 2003, published 2004).

Assays:
[1] = target: HIV reverse transcriptase (Human immunodeficiency virus type 1 group M subtype B, UniProt P04585); assay: HIV reverse transcriptase inhibition primer extension experiment (incorporation of nucleoside triphosphates into DNA by RT, chain termination); format: biochemical; settings: triphosphate form; template SEQ ID NO:1, primer SEQ ID NO:2; terminated product 38 instead of 53 base pairs; FIG. 2
Source text: For primer extension experiments (Example 3), some of the novel nucleoside analog inhibitors were converted to triphosphate form in vitro, such as occurs in mammalian cells by endogenous enzymes.
Once incorporated into the growing DNA strand, transcription is terminated because the nucleosides lack the necessary 3′ hydroxyl group.
The method is analogous to the Sanger sequencing. Specifically, in the presence of a template and four natural nucleotide triphosphates (dATP, dGTP, dCTP and dTTP), a radiolabeled primer is extended to full length by RT, as indicated by a single band on the sequencing gel. Addition of ddTTP, which competes with dTTP, results in the termination of primer extension at the positions of nucleotides opposite adenosine in the template strand. AZTTP, which is also a chain terminator, gives a similar result as ddTTP. If a compounds, e.g., (V) to (VII), in triphosphate form has a branched 3′-group that cannot be accommodated in the 3′-pocket of RT, the compound is not a substrate for RT. Therefore, it will be unable to compete with dTTP, resulting in a completed, extended product. […]
Template cagatagtcttcacgaggcaggtcgtcttgtcctggtActcgtttgcgttccg (SEQ ID NO:1) and primer […] […] With this template and primer, there is only one adenosine in the template to be read into the growing chain as a thymidine (capital and boldface in SEQ ID NO:1). […]

[2] = taken with ddI (Videx or Videx EC); cited from earlier work
[3] = 300 mg x 2/day; cited from earlier work
[4] = nitrogen at the 3'-branched group; Hossain et al., 1993; Huang et al., 1995; cited from earlier work

Cc1cn([C@H]2C[C@H](N=[N+]=[N-])[C@@H](CO[P@](=O)(O)O[P@](=O)(O)OP(=O)(O)O)O2)c(=O)[nH]c1=O [AZTTP, AZT-triphosphate]
chain termination of the primer extension opposite the only A in the template (substrate for RT) [1]: chain terminators

CC(C)OC(=O)OCOP(=O)(CO[C@H](C)Cn1cnc2c(N)ncnc21)OCOC(=O)OC(C)C [Viread, tenofovir DF]
increase of ddI levels in the blood [2]: ≤ 60%, causing increased

Nc1nc(NC2CC2)c2ncn([C@H]3C=C[C@@H](CO)C3)c2n1 [Ziagen, abacavir]
Serious allergic reactions, share of patients [3]: Serious allergic reactions in about 3-5% of patients.

Cc1cn([C@H]2CC[C@@H](COP(=O)(O)OP(=O)(O)OP(=O)(O)O)O2)c(=O)[nH]c1=O [ddTTP]
chain termination of the primer extension opposite the only A in the template (substrate for RT) [1]: chain terminators

Cc1cn([C@H]2CC([N+](=O)[O-])[C@@H](CO)O2)c(=O)[nH]c1=O (some centres unmarked) [molecule (I)]
effectiveness in vivo [4]: ineffective in vivo
